Results taken from patent publication US20230393120A1, “A HUMAN VASCULAR INJURY-ON-A-CHIP MODEL OF HEMOSTASIS” (THE TRUSTEES OF THE UNIVERSITY OF PENNSYLVANIA, priority 2020, published 2023).
Where a SMILES comes first, the peptide text is derived from it. Bridges are numbered along the chain shown (N, C = ends). [ ]: non-standard residue; d: D form. hArg = N=C(N)NCCCC[C@H](N)C(=O)O; Mpa = O=C(O)CCS

Tested on: injury-induced platelet and fibrin deposition (hemostatic plug formation), human whole blood
Assay: Drug testing in the vascular injury-on-a-chip perfused with drug-containing whole blood
Assay type: cell-based
Excerpt: Human vascular injury-on-a-chip as a drug screening platform: anticoagulants and antiplatelet agents can be used for treating or preventing thrombotic events in the arterial and venous circulations. However, anticoagulants and antiplatelet agents can increase the risk of bleeding, especially when used in combination. The disclosed vascular injury-on-a-chip model provides a potential tool for evaluating these adverse effects, offering a complementary approach to animal models. Such features were tested using Hirudin and eptifibatide as model compounds representing anticoagulant and antiplatelet drugs, respectively. The disclosed subject matter was used to measure and compare the extent of injury-induced platelet and fibrin deposition when the disclosed devices were perfused with drug-containing whole blood. […] For quantitative analysis, we devised an injury closure score ranging between 0 and 2, which corresponds to fully open and fully closed, respectively. The hirudin-treated devices yielded an average score of […] the untreated control group scored 1.138. (FIG. 5E), indicating the adverse effects of Hirudin on the formation of competent hemostatic plugs.
Preparation of blood vessel-on-a-chip: Assembled devices were autoclaved for sterilization prior to cell culture. To increase the strength of interfacial adhesion between collagen gel and PDMS, dopamine hydrochloride (Sigma-Aldrich) solution (2.0 mg/mL w/v in 10 mM Tris-HCl buffer, pH 8.5) was injected into the middle compartment of the device and incubated for 2 hours at room temperature. Next, 6 mg/ml of rat-tail collagen type I containing 2.5% (v/v) lipidated tissue factor (Dade Innovin Reagent, Siemens) was introduced into the polydopamine-treated chamber and polymerized at 37° C. for 30 minutes. After gelation, HUVECs suspended in EGM-2 medium were seeded into the intravascular channel at a density of 1.6-1.8×10^6 cells/ml and allowed to settle and adhere to the surface of the collagen hydrogel by rotating the device by 90°. Following cell attachment, the device was perfused with medium to form a confluent endothelial monolayer. For TNF-a experiments, HUVECs were seeded on a tissue factor-free collagen gel and treated overnight with 1 ng/ml of TNF-a (Peprotech).
Healthy donor blood preparation: The blood was obtained via venipuncture into a syringe containing 3.8% sodium citrate (9:1) and 40 μg/ml of corn trypsin inhibitor (CTI). Right before perfusion through the device, the blood was recalcified (15 mM CaCl2) for 3 minutes. Fluorescently-labeled antibodies to detect platelets (a-CD61-568), P-selectin (a-CD62P-647), and fibrin (a-Fibrin-488) were added at a final concentration of 1 μg/ml. If inhibitors were used in the experiment, they were added in the recalcification step as well. The final concentration for eptifibatide acetate was 100 μM, and for Hirudin was 4 μg/ml.
Puncture injury and global hemostasis assessment: For precise spatial control of injury, a 30 G blunt needle was inserted between the two PM DS channel layers during device assembly and used as a sheath that guides the insertion of a microneedle. To induce puncture injury, either a 0.12 or 0.20 mm acupuncture needle was inserted into the guide needle and gently pushed towards the extravascular compartments in a controlled manner either to pierce through the endothelium and the entire thickness of the collagen hydrogel or to superficially injure the endothelial layer. Following injury, the intravascular and extravascular channels were perfused with recalcified blood and HBSS buffer (20 mM HEPES, 2 mM Ca2+), respectively using two independently controlled syringe pumps (Fusion 400, Chemyx & BS-8000 120 V, Braintree Scientific).
Fluorescently-labeled antibodies to CD61, P-selectin, and fibrin were added to the blood prior to perfusion through the microfluidic device to visualize platelet deposition, platelet activation, and fibrin accumulation. […]

Molecule: N=C(N)NCCCC[C@@H]1NC(=O)CCSSC[C@@H](C(N)=O)NC(=O)[C@@H]2CCCN2C(=O)[C@H](Cc2c[nH]c3ccccc23)NC(=O)[C@H](CC(=O)O)NC(=O)CNC1=O [eptifibatide] ([Mpa][hArg]GDWPC-NH2; disulfide 1-7)
- contraction of the vessel wall (matrix deformation, normalized injury area over time) (eptifibatide 100 μM): negligible contraction
- platelet activation (eptifibatide 100 μM in whole blood): reduction
- fibrin accumulation (eptifibatide 100 μM in whole blood, relative to control): did not change
- platelet accumulation (eptifibatide 100 μM in whole blood, vs control): markedly reduce
- injury channel closure, compared with Hirudin (eptifibatide 100 μM vs Hirudin 4 μg/ml): to a greater extent than Hirudin
- state of the injury channel (eptifibatide 100 μM, confocal images): remained open
- injury score (0 fully open, 1 partially closed, 2 fully closed) (eptifibatide 100 μM, final time point): 0

Molecule: Hirudin
- fibrin accumulation (Hirudin 4 μg/ml in whole blood, vs control): drastically reduce
- platelet accumulation (Hirudin 4 μg/ml in whole blood, vs control without the drug): no statistically significant changes
- platelet activation (Hirudin 4 μg/ml in whole blood, vs control without the drug, P-selectin MFI): no statistically significant changes
- state of the injury channel openings (Hirudin 4 μg/ml, confocal images): intravascular end of the injury channel remained open, but platelet aggregates blocked the extravascular opening
- injury closure (injury closure score 0-2, fully open to fully closed) (Hirudin 4 μg/ml, final time point): inhibits
